Results as given in patent US20070293443A1, “Composition for Accelerating Calcium Absorption” (Good Shusei Co. Ltd, priority 2004, published 2007).

Assays:
[1] = system: dietary calcium absorption; assay: Dietary calcium absorption accelerating effect, blood calcium level after oral calcium carbonate with test substance (Example 1); type: in vivo; settings: male ICR mice, oral 5 mmol/kg calcium carbonate alone or with test substance (1.25-10.0 mmol/kg), up to 4 hours after administration
Excerpt: For the experiment, 11-weeks old male ICR mice were used after overnight fasting. During the test period, the mice were given deionized water only. […] The doses of L-arabonic acid administered in combination were 1.25 mmol/kg (Group II), 2.5 mmol/kg (Group III), 5.0 mmol/kg (Group IV), and 10.0 mmol/kg (Group V), and the doses of D-gluconic acid were 2.5 mmol/kg (Group VI), 5.0 mmol/kg (Group VII), and 10.0 mmol/kg (Group VIII). […] The blood calcium level was quantified by a chelate colorimetric method (ortho-cresolphthalein complexone (OCPC) method). The obtained data were analyzed by a paired t-test, and a risk ratio of 5% or less was considered as significant difference.

[2] = Neutralization curve on dropwise addition of 0.05 N sodium hydroxide, buffering capacity (Example 9); type: physicochemical; settings: 50 mL of 0.4% aqueous solution, 0.05 N sodium hydroxide added
Description: A sodium hydroxide solution at a concentration of 0.05 N was added to 50 mL of a 0.4% aqueous solution of the preparation of Example 9, and the changes in pH were obtained as shown in FIG. 3. […] In addition, 0.2% aqueous solutions of the preparation of Example 9, Comparative Example 1 and Comparative Example 2 were tasted. The 0.2% aqueous solution of the preparation of […] (pH 4.95), having the lowest pH among three, had the closest taste to water, no flavor, and thus it was indistinguishable from water. The preparations of Comparative Example 1 (pH 5.60) and Comparative Example 2 (pH 5.02) had clearly bitter tastes, even in small amount.
In addition, a sodium hydroxide solution at a concentration of 0.05 N was added to 50 mL of a 0.4% aqueous solution of L-arabono-γ-lactone and 50 mL of a 0.4% aqueous solution of D-glucono-δ-lactone, respectively, and the changes in pH were obtained as shown in FIG. 2.

mice = assay: Single oral administration safety test, LD50; type: in vivo
Excerpt: As a result of a single oral test using mice, it was confirmed that the LD50 value of L-arabonic acid was about 10 g/kg, and thus L-arabonic acid was a material having high safety.
While it was discovered in Example 5 that the calcium moiety of calcium L-arabonate used in the invention was extremely readily-absorbable, it was shown in Example 6 that the L-arabonic acid moiety was extremely poorly absorbed in the digestive tract.

[3] = Blood calcium level after administration of calcium L-arabonate (Example 5); type: in vivo; settings: male ICR mice, oral calcium L-arabonate 1.25, 2.5, 5.0 mmol/kg or calcium carbonate 5 mmol/kg, up to 4 hours
Description: For the experiment, 11-weeks old male ICR mice were used after overnight fasting. During the test period, the mice were given deionized water only. The mice were divided into four groups (Groups I to IV, 5 animals in each group), and the test substance was orally administered as a solution in deionized water. […] The blood calcium level was quantified by a chelating calorimetric method (ortho-cresolphthalein complexone (OCPC) method). The obtained data were analyzed by a paired t-test, and a risk ratio of 5% or less was considered as significant difference.

[4] = Kinetics of calcium L-arabonate in the digestive tract of rat (Example 6); type: in vivo
Description: For the experiment, 9 to 12-weeks old male Wistar rats were used after overnight fasting. After orally administering 2.5 mmol/kg of calcium L-arabonate, the animals were entered into a metabolic cage, and were sacrificed after 2 hours, after 6 hours, and after 24 hours, to remove the digestive tracts. The contents in each site of the digestive tract were recovered, respectively, and the amount of unaltered L-arabonic acid was quantified by the HPLC method. During the test period, the animals were given deionized water only.

[5] = system: experimental osteoporosis induced by calcium-deficient diet; assay: Experimental osteoporosis induced by calcium-deficient diet (Example 7); type: in vivo, mice; settings: for absorption rate of calcium in the digestive tract, fourth week / absorption rate of calcium in the digestive tract, second week: calcium-deficient diet mice; for Femur Ash content / Femur Ca content / Femur P content / Femur Weight / Tibia Ash content / Tibia Ca content / Tibia P content / Tibia Weight: 4 weeks
Description: (§1) Six-week old female ICR mice were divided into five groups (Groups I to V, 10 animals in each group), and fed calcium-deficient feed (calcium carbonate-free AIN 93M, Oriental Yeast Co., Ltd.) for 4 weeks to induce osteoporosis condition. Calcium L-arabonate was dissolved in water and orally administered daily in a dose of 1.25 mmol/kg (Group II) or 2.5 mmol/kg (Group III). The control group for pathological condition (Group I) was administered with water in the same manner. As a comparative group, a group administered with calcium D-gluconate (dose 2.5 mmol/kg (Group IV)) was provided. A normal control group (Group V) was separately provided and was given the normal feed (AIN 93M, Oriental Yeast Co., Ltd.). After administering the test substance on the second week and fourth week of initiation of the test, the animals were transferred to a metabolic cage, and feces were collected for 24 hours. The amount of calcium and phosphorus excreted in the feces were measured, and the absorption rates of ingested calcium and phosphorous in the digestive tract were determined. After completion of the test period, the animals of the respective groups were sacrificed to remove both femurs and tibiae. The femurs and tibiae were removed muscles etc., then immersed in 70% ethanol overnight, and dried at 60° C. for 24 hours to be used as samples for analysis. The measurement items were dry weight, ash content, calcium content, and phosphorus content. The ash content was measured by an ashing method at 550° C. for 18 hours, the calcium content was measured by an OCPC method (Calcium C-Test Wako, Wako Pure Chemical Industries, Ltd.), and the phosphorus content was measured by a p-methylaminophenol reduction method (Phospho C-Test Wako, Wako Pure Chemical Industries, Ltd.). The obtained data were analyzed by ANOVA and the Dunnett's method, and a risk ratio of 5% or less was considered as significant difference.

[6] = system: experimental osteoporosis induced by combination of ovary excision and calcium-deficient diet; assay: Experimental osteoporosis due to combination of ovary excision and calcium-deficient diet (Example 8); type: in vivo, mice; settings: for absorption rate of calcium in the digestive tract, fourth week / absorption rate of calcium in the digestive tract, second week: ovary-excised mice on calcium-deficient diet; for Femur Ash content / Femur Ca content / Femur P content / Femur Weight / Tibia Ash content / Tibia Ca content / Tibia P content / Tibia Weight: 4 weeks
Description: as §1
Six-weeks old female ICR mice excised their ovaries were divided into 5 groups (Groups I to V, 10 animals in each group), and fed calcium-deficient feed (calcium carbonate-free AIN 93M, Oriental Yeast Co., Ltd.) for 4 weeks to induce osteoporosis condition. Calcium L-arabonate was dissolved in water, and orally administered daily in a dose of 1.25 mmol/kg (Group II) or 2.5 mmol/kg (Group III). The control group for pathological condition (Group I) was administered with water in the same manner. As a comparative group, a group administered with calcium D-gluconate (dose 2.5 mmol/kg (Group IV)) was provided. Also, a group excised ovaries but given with normal feed (AIN 93M, Oriental Yeast Co., Ltd.) (Group V) was separately provided. The measurement of the absorption rate of calcium in the digestive tract, and the analysis of femur and tibia were performed in the same manner as in Example 7.

[7] = 1.25 and 2.5 mmol/kg, versus pathological control and calcium D-gluconate group

SMILES: O=C1O[C@@H](CO)[C@H](O)[C@H]1O [L-arabono-γ-lactone]
- change in blood calcium level [1]: same effects as those of L-arabonic acid
- buffering capacity [2]: milder than that of D-glucono-δ-lactone

SMILES: O=C([O-])[C@@H](O)[C@H](O)[C@H](O)CO.O=C([O-])[C@@H](O)[C@H](O)[C@H](O)CO.[Ca+2] [calcium L-arabonate]
- LD50 (mice): ≥ 7400 mg/kg
- change in blood calcium level [3]: dose-dependent increases in the blood calcium level
- share of the total amount of administration remained in the cecum and the colon ([4]; after 24 hours, oral 2.5 mmol/kg calcium L-arabonate): About 23%
- absorption of the arabonic acid moiety in the small intestine ([4]; after oral administration of the calcium salt): hardly absorbed in the small intestine
- Residual ratio of L-arabonic acid after administration, Cecum, After 2 hrs ([4]; oral 2.5 mmol/kg calcium L-arabonate, cecum, 2 hrs): 34.4 ± 5.81%
- Residual ratio of L-arabonic acid after administration, Cecum, After 6 hrs ([4]; oral 2.5 mmol/kg calcium L-arabonate, cecum, 6 hrs): 57.8 ± 2.27%
- Residual ratio of L-arabonic acid after administration, Cecum, After 24 hrs ([4]; oral 2.5 mmol/kg calcium L-arabonate, cecum, 24 hrs): 19.0 ± 15.67%
- Residual ratio of L-arabonic acid after administration, Colon, After 2 hrs ([4]; oral 2.5 mmol/kg calcium L-arabonate, colon, 2 hrs): 1.9 ± 0.76%
- Residual ratio of L-arabonic acid after administration, Colon, After 6 hrs ([4]; oral 2.5 mmol/kg calcium L-arabonate, colon, 6 hrs): 3.9 ± 1.30%
- Residual ratio of L-arabonic acid after administration, Colon, After 24 hrs ([4]; oral 2.5 mmol/kg calcium L-arabonate, colon, 24 hrs): 2.5 ± 0.95%
- Residual ratio of L-arabonic acid after administration, Small intestine, After 2 hrs ([4]; oral 2.5 mmol/kg calcium L-arabonate, small intestine, 2 hrs): 22.6 ± 4.85%
- Residual ratio of L-arabonic acid after administration, Small intestine, After 6 hrs ([4]; oral 2.5 mmol/kg calcium L-arabonate, small intestine, 6 hrs): 2.2 ± 1.08%
- Residual ratio of L-arabonic acid after administration, Small intestine, After 24 hrs ([4]; oral 2.5 mmol/kg calcium L-arabonate, small intestine, 24 hrs): 0.2 ± 0.08%
- Residual ratio of L-arabonic acid after administration, Stomach, After 2 hrs ([4]; oral 2.5 mmol/kg calcium L-arabonate, stomach, 2 hrs): 3.30 ± 1.34%
- Residual ratio of L-arabonic acid after administration, Stomach, After 6 hrs ([4]; oral 2.5 mmol/kg calcium L-arabonate, stomach, 6 hrs): 0.1 ± 0.06%
- Residual ratio of L-arabonic acid after administration, Stomach, After 24 hrs ([4]; oral 2.5 mmol/kg calcium L-arabonate, stomach, 24 hrs): 0%
- absorption rates of phosphorus in the digestive tract ([5]; 1.25 and 2.5 mmol/kg, compared with calcium D-gluconate group): tendency for higher absorption rates of phosphorus compared with the comparative group
- amelioration of weight, ash, calcium and phosphorus content of femur and tibia [5, 7]: ameliorated in all of the above indices in dose-dependent manner
- absorption rate of calcium in the digestive tract, fourth week ([5]; dose 1.25 mmol/kg oral daily): 99.3%
- absorption rate of calcium in the digestive tract, second week ([5]; dose 1.25 mmol/kg oral daily): 93.1%
- absorption rate of calcium in the digestive tract, fourth week ([5]; dose 2.5 mmol/kg oral daily): 80.1%
- absorption rate of calcium in the digestive tract, second week ([5]; dose 2.5 mmol/kg oral daily): 87.9%
- Femur Ash content ([5]; dose 1.25 mmol/kg oral daily): 24 ± 0.7 mg
- Femur Ca content ([5]; dose 1.25 mmol/kg oral daily): 8.8 ± 0.22 mg
- Femur P content ([5]; dose 1.25 mmol/kg oral daily): 4.5 ± 0.09 mg
- Femur Weight ([5]; dose 1.25 mmol/kg oral daily): 44 ± 1.0 mg
- Femur Ash content ([5]; dose 2.5 mmol/kg oral daily): 27 ± 0.5 mg
- Femur Ca content ([5]; dose 2.5 mmol/kg oral daily): 9.5 ± 0.13 mg
- Femur P content ([5]; dose 2.5 mmol/kg oral daily): 5.1 ± 0.05 mg
- Femur Weight ([5]; dose 2.5 mmol/kg oral daily): 49 ± 1.1 mg
- Tibia Ash content ([5]; dose 1.25 mmol/kg oral daily): 23 ± 0.8 mg
- Tibia Ca content ([5]; dose 1.25 mmol/kg oral daily): 8.1 ± 0.28 mg
- Tibia P content ([5]; dose 1.25 mmol/kg oral daily): 4.2 ± 0.14 mg
- Tibia Weight ([5]; dose 1.25 mmol/kg oral daily): 43 ± 1.6 mg
- Tibia Ash content ([5]; dose 2.5 mmol/kg oral daily): 24 ± 0.5 mg
- Tibia Ca content ([5]; dose 2.5 mmol/kg oral daily): 9.1 ± 0.22 mg
- Tibia P content ([5]; dose 2.5 mmol/kg oral daily): 4.6 ± 0.05 mg
- Tibia Weight ([5]; dose 2.5 mmol/kg oral daily): 46 ± 1.2 mg
- amelioration of weight, ash, calcium and phosphorus content of femur and tibia [6, 7]: ameliorated in all of the indices in dose-dependent manner
- absorption rate of calcium in the digestive tract, fourth week ([6]; dose 1.25 mmol/kg oral daily): 81.8%
- absorption rate of calcium in the digestive tract, second week ([6]; dose 1.25 mmol/kg oral daily): 85.7%
- absorption rate of calcium in the digestive tract, fourth week ([6]; dose 2.5 mmol/kg oral daily): 57.7%
- absorption rate of calcium in the digestive tract, second week ([6]; dose 2.5 mmol/kg oral daily): 74.4%
- Femur Ash content ([6]; dose 1.25 mmol/kg oral daily): 25 ± 0.4 mg
- Femur Ca content ([6]; dose 1.25 mmol/kg oral daily): 8.8 ± 0.18 mg
- Femur P content ([6]; dose 1.25 mmol/kg oral daily): 4.7 ± 0.07 mg
- Femur Weight ([6]; dose 1.25 mmol/kg oral daily): 45 ± 0.9 mg
- Femur Ash content ([6]; dose 2.5 mmol/kg oral daily): 28 ± 0.8 mg
- Femur Ca content ([6]; dose 2.5 mmol/kg oral daily): 10.2 ± 0.24 mg
- Femur P content ([6]; dose 2.5 mmol/kg oral daily): 5.3 ± 0.11 mg
- Femur Weight ([6]; dose 2.5 mmol/kg oral daily): 50 ± 0.9 mg
- Tibia Ash content ([6]; dose 1.25 mmol/kg oral daily): 22 ± 0.3 mg
- Tibia Ca content ([6]; dose 1.25 mmol/kg oral daily): 8.2 ± 0.15 mg
- Tibia P content ([6]; dose 1.25 mmol/kg oral daily): 4.2 ± 0.05 mg
- Tibia Weight ([6]; dose 1.25 mmol/kg oral daily): 42 ± 0.8 mg
- Tibia Ash content ([6]; dose 2.5 mmol/kg oral daily): 25 ± 0.5 mg
- Tibia Ca content ([6]; dose 2.5 mmol/kg oral daily): 9.3 ± 0.23 mg
- Tibia P content ([6]; dose 2.5 mmol/kg oral daily): 4.7 ± 0.11 mg
- Tibia Weight ([6]; dose 2.5 mmol/kg oral daily): 46 ± 1.0 mg
